Measured values reported in patent US4595695A, “1'-ethoxycarbonyloxyethyl ester of valproic acid, its preparation and pharmaceutical compositions containing it” (Teva Pharmaceutical Industries Ltd., priority 1983, dated 1986).
Where two headings read alike, the source gives them in different places.

Key:
[1] = stability of the ester in 0.01 N HCl; assay type: physicochemical; conditions: room temperature, first order kinetics, read-out: stability half-life time in 0.01 N HCl (converted)
Protocol: (§1) The ester was quite stable at -20° C. or after HCl was added to the plasma mixture. […] All these half-life time calculations were done by assuming a first order linear kinetics of hydrolysis of the ester to valproic acid.

[2] = stability of the ester in plasma in vitro; assay type: in vitro ADME
Protocol: as §1

[3] = pharmacokinetic parameters of VPA in dogs after oral administration of the ester or DEPAKINE;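 as to all read-outs here: comparator arm received VPA orally as the free acid rather than as the ester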; assay type: in vivo, dog; conditions: for ka, absorption rate constant / CL/F / AUC / Vd/F / k el / half-life / Tmax: VPA, 400 mg; for CL/F / AUC / Vd/F / k el / half-life / Tmax: dog, in vivo, po; for AUC: read-out: AUC, area under the plasma conc. vs. time curve (row head is drawing 3) (converted); for Vd/F: read-out: V; for k el: read-out: ke, elimination rate constant (converted); for half-life: read-out: t1/2 elimin. (converted); for Tmax: read-out: t max obs, observed time to reach peak plasma concentration (converted)
[4] = VPA plasma levels after oral administration of the ester to five dogs; assay type: in vivo, dog; design: key: --: Undetectable concentration of VPA
Protocol: Concentration of VPA after oral administration of the ester of this invention to five dogs are presented in the following Table I. Each plasma sample was assayed three times and the results presented in Table I are mean ±S.D. of these analyses.

rats = assay: toxicity after oral administration to rats; assay type: in vivo, rat; conditions: 20 and 100 mg/kg
[5] = expected VPA plasma concentration after single oral administration of the ester to man; assay type: in vivo
From the text: Based on the prolonged absorption of VPA after administration of the ester, this new prodrug might be administered to epileptic patients twice or even once a day.

[6] = physiological pH; cited from earlier work
[7] = combination therapy with other anti-epileptic drugs; cited from earlier work
[8] = oral; cited from earlier work
animals = conditions: in vivo; cited from earlier work

For `CCCC(CCC)C(=O)OC(C)OC(=O)OCC` (stereo not drawn) [1'-ethoxycarbonyloxyethyl ester, 1'-ethoxycarbonyloxyethyl ester of valproic acid], the half-life [1] was 32.4 h, the “stability at -20° C. or after HCl was added to the plasma mixture” value ([2]; -20° C. or HCl added to plasma mixture) was “quite stable” and the “transformation to valproic acid in plasma” value ([2]; plasma in vitro, room temperature) was “transformed to valproic acid”. The half-life ([2]; plasma in vitro, room temperature, first order kinetics) was 2.23 h, the “ka, absorption rate constant” value ([3]; dog 1, oral) was 0.015 min⁻¹ and the “ka, absorption rate constant” value ([3]; dog 2, oral) was 0.02 min⁻¹. For the same compound, the “ka, absorption rate constant” value ([3]; dog 3, oral) was 0.02 min⁻¹, the “ka, absorption rate constant” value ([3]; dog 4, oral) was 0.01 min⁻¹ and the “ka, absorption rate constant” value ([3]; dog 5, oral) was 0.04 min⁻¹. The CL/F ([3]; dog 1) was 66.7 mL/min, the AUC ([3]; dog 1, oral) was 76800 ng·h/mL and the Vd/F ([3]; dog 1, oral) was 12.1 L. The k el ([3]; dog 1, oral) was 9.17e-05 s⁻¹, the half-life ([3]; dog 1, oral) was 2.1 h and the Tmax ([3]; dog 1, oral) was 2 h. The CL/F ([3]; dog 2) was 34.8 mL/min, the AUC ([3]; dog 2, oral) was 167000 ng·h/mL and the Vd/F ([3]; dog 2, oral) was 5.35 L. The k el ([3]; dog 2, oral) was 0.000108 s⁻¹, the half-life ([3]; dog 2, oral) was 1.78 h and the Tmax ([3]; dog 2, oral) was 1.4 h. The CL/F ([3]; dog 3) was 61.5 mL/min, the AUC ([3]; dog 3, oral) was 67700 ng·h/mL and the Vd/F ([3]; dog 3, oral) was 5.08 L. It also gave a k el ([3]; dog 3, oral) of 0.00202 s⁻¹, a half-life ([3]; dog 3, oral) of 0.95 h and a Tmax ([3]; dog 3, oral) of 1.17 h. It also gave a CL/F ([3]; dog 4) of 56.5 mL/min, an AUC ([3]; dog 4, oral) of 81200 ng·h/mL and a Vd/F ([3]; dog 4, oral) of 8.69 L. It also gave a k el ([3]; dog 4, oral) of 0.000108 s⁻¹, a half-life ([3]; dog 4, oral) of 1.78 h and a Tmax ([3]; dog 4, oral) of 2.5 h. The CL/F ([3]; dog 5) was 42.7 mL/min, the AUC ([3]; dog 5, oral) was 142000 ng·h/mL and the Vd/F ([3]; dog 5, oral) was 7.24 L. The Tmax ([3]; dog 5, oral) was 1.2 h, the “VPA plasma levels between 30 to 240 minutes” value ([3]; dogs, after ester administration) was “More or less constant plasma levels” and the “difference between the maximal and minimal steady state levels” value ([3]; dogs, between 30 to 240 minutes) was “less than a two-fold difference”. The “distribution and elimination parameters of VPA compared between the two drug products” value ([3]; dogs, exception: V in dog number 1) was “not significantly different”, the “absorption rate of VPA compared with free acid” value ([3]; dogs, oral, ester versus free acid) was “two to five times slower” and the VPA plasma levels ([4]; dog 1, 15 min) was “--”. For the same compound, the VPA plasma levels ([4]; dog 1, 660 min) was “--”, the VPA plasma levels ([4]; dog 1, 720 min) was “--” and the VPA plasma levels ([4]; dog 1, 780 min) was “--”. For the same compound, the VPA plasma levels ([4]; dog 1, 840 min) was “--”, the VPA plasma levels ([4]; dog 1, 900 min) was “--” and the VPA plasma levels ([4]; dog 2, 660 min) was “--”. The VPA plasma levels ([4]; dog 2, 840 min) was “--”, the VPA plasma levels ([4]; dog 2, 900 min) was “--” and the VPA plasma levels ([4]; dog 3, 720 min) was “--”. For the same compound, the VPA plasma levels ([4]; dog 3, 780 min) was “--”, the VPA plasma levels ([4]; dog 3, 840 min) was “--” and the VPA plasma levels ([4]; dog 3, 900 min) was “--”. For the same compound, the VPA plasma levels ([4]; dog 4, 45 min) was “--”, the VPA plasma levels ([4]; dog 4, 60 min) was “--” and the VPA plasma levels ([4]; dog 4, 75 min) was “--”. The VPA plasma levels ([4]; dog 4, 210 min) was “--”, the VPA plasma levels ([4]; dog 4, 660 min) was “--” and the VPA plasma levels ([4]; dog 4, 720 min) was “--”. For the same compound, the VPA plasma levels ([4]; dog 4, 780 min) was “--”, the VPA plasma levels ([4]; dog 4, 840 min) was “--” and the VPA plasma levels ([4]; dog 4, 900 min) was “--”. The VPA plasma levels ([4]; dog 5, 30 min) was “--”, the VPA plasma levels ([4]; dog 5, 660 min) was “--” and the VPA plasma levels ([4]; dog 5, 780 min) was “--”. The VPA plasma levels ([4]; dog 5, 840 min) was “--”, the VPA plasma levels ([4]; dog 5, 900 min) was “--” and the toxicity (rats) was “did not show any toxicity”. The “expected VPA concentration profile in man” value [5] was “prolonged pseudo steady state concentration”.
For `CCCC(CCC)C(=O)O` [VPA, di-n-propylacetic acid], the “ionization of carboxylic group” value [6] is listed as “significantly ionized” and the “half life time in combination therapy” value [7] is listed as “even shorter than in a single therapy”.
For `CCCC(CCC)C(N)=O` [VPD, Valpromide-dipropylacetamide], the “absorption compared with VPA” value [8] is listed as “slower absorption than VPA” and the bioavailability [8] is listed as “low bioavailability”.
For `CCCC(CCC)COC(=O)C(CCC)CCC` [2-propylpentanol-di-n-propyl acetate], the toxicity to animals (animals) is listed as “very toxic to animals”.
